Assay results from ChEMBL document CHEMBL4507265 (2021).

Columns and labels:
[1] = target: Serine/threonine-protein kinase Chk1 (Homo sapiens) (UniProt O14757); settings: Compound concentration 1000.0 nM
[2] = tested on: Epidermal growth factor receptor (Homo sapiens), P00533 [UNDEFINED MUTATION]; settings: Compound concentration 1000.0 nM
[3] = target: Ribosomal protein S6 kinase alpha-2 (Homo sapiens) (UniProt Q15349); settings: Compound concentration 1000.0 nM
[4] = GPCRScan assay: inhibition of GABA/PBR; set-up: species or system Rattus norvegicus; radioligand conc. used [nm] 0.3 – 2.0, parental cells brain tissue
[5] = target: Dual specificity tyrosine-phosphorylation-regulated kinase 1B (Homo sapiens) (UniProt Q9Y463); settings: Compound concentration 1000.0 nM
[6] = target: Activin receptor type-2A (Homo sapiens) (UniProt P27037); settings: Compound concentration 1000.0 nM
[7] = target: SNF-related serine/threonine-protein kinase (Homo sapiens) (UniProt Q9NRH2); settings: Compound concentration 1000.0 nM
[8] = target: Calcium/calmodulin-dependent protein kinase kinase 1 (Homo sapiens) (UniProt Q8N5S9); settings: Compound concentration 1000.0 nM
[9] = target: Receptor-interacting serine/threonine-protein kinase 2 (Homo sapiens) (UniProt O43353); settings: Compound concentration 1000.0 nM
[10] = target: Mitogen-activated protein kinase kinase kinase 13 (Homo sapiens) (UniProt O43283); settings: Compound concentration 1000.0 nM
[11] = target: NUAK family SNF1-like kinase 2 (Homo sapiens) (UniProt Q9H093); settings: Compound concentration 1000.0 nM
[12] = target: 5-hydroxytryptamine receptor 1E (Homo sapiens) (UniProt P28566); settings: Compound concentration 10.0 uM
[13] = target: Myotonin-protein kinase (Homo sapiens) (UniProt Q09013); settings: Compound concentration 1000.0 nM
[14] = target: 5-hydroxytryptamine receptor 6 (Homo sapiens) (UniProt P50406); settings: Compound concentration 10.0 uM
[15] = tested on: Epidermal growth factor receptor (Homo sapiens), P00533 [UNDEFINED MUTATION]; settings: Compound concentration 1000.0 nM; remark: listed apart in the source
[16] = target: Serine/threonine-protein kinase Nek7 (Homo sapiens) (UniProt Q8TDX7); settings: Compound concentration 1000.0 nM
[17] = target: Serine/threonine-protein kinase/endoribonuclease IRE1 (Homo sapiens) (UniProt O75460); settings: Compound concentration 1000.0 nM
[18] = target: Histamine H3 receptor (Homo sapiens) (UniProt Q9Y5N1); settings: Compound concentration 10.0 uM
[19] = target: GABA-A receptor; anion channel (Rattus norvegicus) (UniProt O09028+P15431+P18506+P18508+P19969+P20236+P23574+P23576+P28471+P28473+P30191+P62813+P63079+P63138+Q91ZM7+Q9ES14); assay: Inhibition of GABAA, Muscimol, Central at 10 µM in the Eurofins-Panlabs radioligand binding assay (Eurofins_assay_226500); assay type: protein-complex assay; settings: Compound concentration 10.0 uM
[20] = target: Kappa-type opioid receptor (Homo sapiens) (UniProt P41145); settings: Compound concentration 10.0 uM
Oryctolagus cuniculus = species on record: Oryctolagus cuniculus; assay: Inhibition of Purinergic P2X at 10 µM in the Eurofins-Panlabs radioligand binding assay (Eurofins_assay_268700); assay type: protein assay; settings: Compound concentration 10.0 uM
[21] = target: Glutamate NMDA receptor (Rattus norvegicus) (UniProt P35439+Q00959+Q00960+Q00961+Q62645+Q8VHN2+Q9R1M7); settings: Compound concentration 10.0 uM
[22] = target: Epidermal growth factor receptor (Homo sapiens) (UniProt P00533); assay: Inhibition of Epidermal Growth Factor (EGF) at 10 µM in the Eurofins-Panlabs radioligand binding assay (Eurofins_assay_225510); settings: Compound concentration 10.0 uM
[23] = target: T1, 5-hydroxytryptamine receptor 1A (Homo sapiens) (UniProt P08908); settings: Compound concentration 10.0 uM
T1 sequence (whole entry): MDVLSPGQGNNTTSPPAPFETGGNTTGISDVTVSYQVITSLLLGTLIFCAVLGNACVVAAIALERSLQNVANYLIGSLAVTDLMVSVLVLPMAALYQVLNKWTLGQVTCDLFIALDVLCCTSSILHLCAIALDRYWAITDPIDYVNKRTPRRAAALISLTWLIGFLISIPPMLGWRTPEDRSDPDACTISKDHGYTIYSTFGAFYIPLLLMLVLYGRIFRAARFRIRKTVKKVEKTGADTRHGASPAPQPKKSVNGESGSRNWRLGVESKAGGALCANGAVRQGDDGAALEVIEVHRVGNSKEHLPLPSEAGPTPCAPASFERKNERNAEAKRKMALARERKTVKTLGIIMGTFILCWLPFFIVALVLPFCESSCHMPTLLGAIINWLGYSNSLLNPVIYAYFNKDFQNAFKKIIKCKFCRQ

[24] = target: Gamma-aminobutyric acid type B receptor subunit 1 (Homo sapiens) (UniProt Q9UBS5); assay: Inhibition of GABAB1A at compound concentration of 10.0 uM in the Eurofins-Panlabs radioligand binding assay (Eurofins_assay_228610); set-up: ligand concentration 4 nM; settings: Compound concentration 10.0 uM
[25] = target: Glucocorticoid receptor (Homo sapiens) (UniProt P04150); assay: Glucocorticoid Eurofins-Panlabs radioligand binding assay; settings: Compound concentration 10.0 uM
[26] = target: T2, Muscarinic acetylcholine receptor M1 (Homo sapiens) (UniProt P11229); settings: Compound concentration 10.0 uM
T2 sequence (whole entry): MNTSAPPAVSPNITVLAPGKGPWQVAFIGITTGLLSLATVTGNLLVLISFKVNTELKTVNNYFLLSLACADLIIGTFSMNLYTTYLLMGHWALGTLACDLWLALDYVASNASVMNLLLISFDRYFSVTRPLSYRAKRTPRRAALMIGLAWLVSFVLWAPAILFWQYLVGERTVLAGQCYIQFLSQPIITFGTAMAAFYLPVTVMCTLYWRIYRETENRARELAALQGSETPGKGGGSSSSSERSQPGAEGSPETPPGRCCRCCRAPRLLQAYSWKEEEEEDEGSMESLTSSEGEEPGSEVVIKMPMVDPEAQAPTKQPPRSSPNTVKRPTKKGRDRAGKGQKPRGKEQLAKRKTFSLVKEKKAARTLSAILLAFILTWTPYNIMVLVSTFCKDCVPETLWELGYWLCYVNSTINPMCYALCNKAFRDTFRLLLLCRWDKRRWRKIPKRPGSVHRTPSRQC

[27] = target: Beta-1 adrenergic receptor (Homo sapiens) (UniProt P08588); settings: Compound concentration 10.0 uM

Sequence of Epidermal growth factor receptor (Homo sapiens), P00533 [UNDEFINED MUTATION] (P00533 whole entry, looked up, change not shown): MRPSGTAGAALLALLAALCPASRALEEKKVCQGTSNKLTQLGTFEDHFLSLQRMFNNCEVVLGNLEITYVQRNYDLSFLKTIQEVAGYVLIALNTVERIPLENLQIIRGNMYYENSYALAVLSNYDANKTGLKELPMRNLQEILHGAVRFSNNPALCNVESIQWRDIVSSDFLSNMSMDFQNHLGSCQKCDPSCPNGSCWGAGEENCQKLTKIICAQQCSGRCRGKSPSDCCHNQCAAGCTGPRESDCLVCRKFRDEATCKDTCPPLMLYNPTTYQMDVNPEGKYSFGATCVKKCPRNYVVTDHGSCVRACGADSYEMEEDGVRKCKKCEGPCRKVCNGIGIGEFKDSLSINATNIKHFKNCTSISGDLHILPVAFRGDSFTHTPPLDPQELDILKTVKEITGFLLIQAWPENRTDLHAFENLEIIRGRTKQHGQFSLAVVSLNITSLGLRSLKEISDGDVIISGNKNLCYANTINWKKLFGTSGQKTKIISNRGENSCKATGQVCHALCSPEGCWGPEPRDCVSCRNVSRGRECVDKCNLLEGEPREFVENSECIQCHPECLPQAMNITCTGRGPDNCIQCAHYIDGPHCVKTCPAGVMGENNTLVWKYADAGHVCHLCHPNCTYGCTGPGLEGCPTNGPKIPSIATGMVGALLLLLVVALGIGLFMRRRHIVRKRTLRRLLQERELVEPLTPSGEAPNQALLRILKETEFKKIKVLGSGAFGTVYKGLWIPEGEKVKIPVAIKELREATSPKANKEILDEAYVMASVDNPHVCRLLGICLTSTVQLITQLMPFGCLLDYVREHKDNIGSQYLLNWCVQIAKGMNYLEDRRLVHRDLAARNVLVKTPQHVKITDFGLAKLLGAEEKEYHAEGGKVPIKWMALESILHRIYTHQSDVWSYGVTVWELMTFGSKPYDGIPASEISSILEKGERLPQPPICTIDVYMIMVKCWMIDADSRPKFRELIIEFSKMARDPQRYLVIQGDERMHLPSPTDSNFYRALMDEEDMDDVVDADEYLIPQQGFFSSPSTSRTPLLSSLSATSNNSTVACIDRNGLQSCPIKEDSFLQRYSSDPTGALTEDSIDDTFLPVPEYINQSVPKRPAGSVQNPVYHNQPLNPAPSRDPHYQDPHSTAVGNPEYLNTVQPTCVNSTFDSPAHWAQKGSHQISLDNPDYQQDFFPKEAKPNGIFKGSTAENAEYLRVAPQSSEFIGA
Sequence of Serine/threonine-protein kinase/endoribonuclease IRE1 (Homo sapiens) (O75460 19-977 limits assumed): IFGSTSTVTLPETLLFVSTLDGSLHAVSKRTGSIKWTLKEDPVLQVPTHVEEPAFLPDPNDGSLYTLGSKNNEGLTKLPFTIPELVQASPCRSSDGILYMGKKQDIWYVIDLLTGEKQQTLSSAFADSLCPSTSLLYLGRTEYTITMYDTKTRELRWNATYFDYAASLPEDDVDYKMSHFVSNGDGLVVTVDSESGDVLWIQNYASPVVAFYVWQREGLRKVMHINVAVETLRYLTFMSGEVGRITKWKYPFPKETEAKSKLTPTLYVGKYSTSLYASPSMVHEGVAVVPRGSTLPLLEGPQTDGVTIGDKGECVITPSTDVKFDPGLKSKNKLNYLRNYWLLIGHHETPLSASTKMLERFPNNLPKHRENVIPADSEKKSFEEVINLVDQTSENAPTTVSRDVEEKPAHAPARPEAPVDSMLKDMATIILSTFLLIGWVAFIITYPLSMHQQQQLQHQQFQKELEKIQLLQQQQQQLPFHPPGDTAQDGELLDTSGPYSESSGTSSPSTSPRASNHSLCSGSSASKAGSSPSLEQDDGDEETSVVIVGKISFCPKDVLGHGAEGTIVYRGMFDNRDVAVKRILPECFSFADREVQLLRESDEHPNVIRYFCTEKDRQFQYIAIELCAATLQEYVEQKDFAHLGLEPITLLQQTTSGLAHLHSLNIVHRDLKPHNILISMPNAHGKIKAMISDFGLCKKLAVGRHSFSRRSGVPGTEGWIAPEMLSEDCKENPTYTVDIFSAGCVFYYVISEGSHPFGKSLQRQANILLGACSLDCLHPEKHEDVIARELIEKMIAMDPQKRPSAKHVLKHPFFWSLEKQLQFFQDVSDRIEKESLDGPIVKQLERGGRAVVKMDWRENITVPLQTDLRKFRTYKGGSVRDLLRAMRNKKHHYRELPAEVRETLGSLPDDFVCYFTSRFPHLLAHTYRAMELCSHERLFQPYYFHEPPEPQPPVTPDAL
Sequence of Myotonin-protein kinase (Homo sapiens) (Q09013 whole entry): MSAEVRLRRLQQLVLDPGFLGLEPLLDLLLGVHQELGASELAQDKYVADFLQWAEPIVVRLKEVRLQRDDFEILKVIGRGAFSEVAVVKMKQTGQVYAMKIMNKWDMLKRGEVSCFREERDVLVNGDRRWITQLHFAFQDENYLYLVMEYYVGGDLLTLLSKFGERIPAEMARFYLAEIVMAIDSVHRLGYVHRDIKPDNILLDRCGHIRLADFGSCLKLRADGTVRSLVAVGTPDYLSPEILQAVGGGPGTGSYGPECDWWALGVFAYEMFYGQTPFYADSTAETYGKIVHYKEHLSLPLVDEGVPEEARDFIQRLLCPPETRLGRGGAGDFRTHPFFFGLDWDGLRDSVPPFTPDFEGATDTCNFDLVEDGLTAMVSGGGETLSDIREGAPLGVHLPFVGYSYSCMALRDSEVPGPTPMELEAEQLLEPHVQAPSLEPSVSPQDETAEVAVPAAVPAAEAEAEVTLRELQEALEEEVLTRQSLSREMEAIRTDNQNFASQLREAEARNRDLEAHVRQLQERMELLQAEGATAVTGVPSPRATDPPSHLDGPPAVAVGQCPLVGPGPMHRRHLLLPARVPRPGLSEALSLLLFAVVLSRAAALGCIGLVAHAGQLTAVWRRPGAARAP
Sequence of SNF-related serine/threonine-protein kinase (Homo sapiens) (Q9NRH2 whole entry): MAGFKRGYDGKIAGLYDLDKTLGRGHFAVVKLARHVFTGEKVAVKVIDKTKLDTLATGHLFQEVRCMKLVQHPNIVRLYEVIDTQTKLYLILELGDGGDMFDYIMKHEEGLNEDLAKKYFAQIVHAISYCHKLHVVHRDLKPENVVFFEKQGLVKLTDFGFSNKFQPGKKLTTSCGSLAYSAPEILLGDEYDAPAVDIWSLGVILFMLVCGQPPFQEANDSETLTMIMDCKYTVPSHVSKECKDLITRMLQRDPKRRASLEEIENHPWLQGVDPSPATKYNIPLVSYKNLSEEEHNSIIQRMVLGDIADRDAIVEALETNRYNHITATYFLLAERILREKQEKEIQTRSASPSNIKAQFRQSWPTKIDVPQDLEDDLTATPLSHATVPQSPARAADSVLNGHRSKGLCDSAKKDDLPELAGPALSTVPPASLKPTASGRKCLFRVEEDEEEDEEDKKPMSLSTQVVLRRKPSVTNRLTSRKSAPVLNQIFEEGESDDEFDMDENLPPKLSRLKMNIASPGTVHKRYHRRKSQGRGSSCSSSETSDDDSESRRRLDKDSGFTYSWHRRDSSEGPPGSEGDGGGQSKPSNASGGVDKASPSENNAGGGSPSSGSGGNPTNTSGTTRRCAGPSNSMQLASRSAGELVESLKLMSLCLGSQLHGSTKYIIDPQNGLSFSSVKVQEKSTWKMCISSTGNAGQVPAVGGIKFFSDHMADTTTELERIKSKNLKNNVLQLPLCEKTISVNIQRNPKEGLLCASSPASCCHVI
Sequence of Calcium/calmodulin-dependent protein kinase kinase 1 (Homo sapiens) (Q8N5S9 whole entry, looked up): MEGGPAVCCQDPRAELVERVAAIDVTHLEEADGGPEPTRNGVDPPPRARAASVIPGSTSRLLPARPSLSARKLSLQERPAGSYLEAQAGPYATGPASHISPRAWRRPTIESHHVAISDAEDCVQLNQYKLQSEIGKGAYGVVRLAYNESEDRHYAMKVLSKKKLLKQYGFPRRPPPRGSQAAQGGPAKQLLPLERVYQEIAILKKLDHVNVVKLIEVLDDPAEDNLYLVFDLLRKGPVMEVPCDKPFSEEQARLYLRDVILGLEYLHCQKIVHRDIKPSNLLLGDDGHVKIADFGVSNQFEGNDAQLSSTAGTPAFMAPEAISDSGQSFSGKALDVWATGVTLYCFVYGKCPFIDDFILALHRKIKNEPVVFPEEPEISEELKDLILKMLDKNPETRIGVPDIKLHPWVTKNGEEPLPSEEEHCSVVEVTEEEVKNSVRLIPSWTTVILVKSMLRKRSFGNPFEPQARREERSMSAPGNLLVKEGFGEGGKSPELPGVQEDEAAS
Sequence of 5-hydroxytryptamine receptor 6 (Homo sapiens) (P50406 whole entry): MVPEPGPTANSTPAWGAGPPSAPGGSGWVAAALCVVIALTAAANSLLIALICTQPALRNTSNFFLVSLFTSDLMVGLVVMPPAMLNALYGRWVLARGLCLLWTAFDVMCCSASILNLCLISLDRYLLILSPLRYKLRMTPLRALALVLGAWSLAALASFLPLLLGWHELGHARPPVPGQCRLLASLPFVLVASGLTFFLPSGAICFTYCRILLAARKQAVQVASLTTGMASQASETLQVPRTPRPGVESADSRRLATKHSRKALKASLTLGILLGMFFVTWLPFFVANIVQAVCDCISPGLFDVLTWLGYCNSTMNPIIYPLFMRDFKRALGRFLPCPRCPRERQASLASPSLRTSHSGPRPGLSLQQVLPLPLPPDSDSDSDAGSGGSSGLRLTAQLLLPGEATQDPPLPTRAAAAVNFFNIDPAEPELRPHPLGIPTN
Sequence of Receptor-interacting serine/threonine-protein kinase 2 (Homo sapiens) (O43353 whole entry): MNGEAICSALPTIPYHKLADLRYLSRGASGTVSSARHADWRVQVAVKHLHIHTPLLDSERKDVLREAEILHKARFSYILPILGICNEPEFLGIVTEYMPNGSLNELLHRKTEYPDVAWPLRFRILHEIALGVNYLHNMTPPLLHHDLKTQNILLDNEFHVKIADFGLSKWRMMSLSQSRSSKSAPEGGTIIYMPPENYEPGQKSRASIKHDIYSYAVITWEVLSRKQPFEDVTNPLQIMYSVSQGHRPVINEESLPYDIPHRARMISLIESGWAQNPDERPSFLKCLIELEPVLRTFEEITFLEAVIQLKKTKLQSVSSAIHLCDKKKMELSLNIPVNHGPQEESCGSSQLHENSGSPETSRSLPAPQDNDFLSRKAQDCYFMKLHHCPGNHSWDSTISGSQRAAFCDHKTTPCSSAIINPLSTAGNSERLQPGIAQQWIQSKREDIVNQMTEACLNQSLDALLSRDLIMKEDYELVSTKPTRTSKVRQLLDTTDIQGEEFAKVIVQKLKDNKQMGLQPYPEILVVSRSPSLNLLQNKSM

NS(=O)(=O)c1cc(NC(=O)C2(c3ccccc3Cl)CC2)ccc1Oc1cccc(Cl)c1 [BAY-207]
residual activity [1]: 80% | residual activity [2]: 75% | residual activity [3]: 100% | Ki [4]: 250 nM | pKi [4]: 6.62 | residual activity [5]: 86% | residual activity [6]: 96% | residual activity [7]: 100% | residual activity [8]: 100% | residual activity [9]: 93% | residual activity [10]: 100% | residual activity [11]: 80% | inhibition [12]: -1.46% | residual activity [13]: 79% | inhibition [14]: -4.73% | residual activity [15]: 96% | residual activity [16]: 90% | residual activity [17]: 61%

NS(=O)(=O)c1cc(NC(=O)Cc2ccccc2)ccc1Oc1cccc(Cl)c1 [BAY-1797]
residual activity [1]: 99% | residual activity [3]: 89% | inhibition [18]: 0% | inhibition [19]: 15% | residual activity [5]: 100% | residual activity [6]: 95% | inhibition [20]: 10% | residual activity [7]: 100% | inhibition (Oryctolagus cuniculus): 5% | inhibition [21]: 23% | inhibition [22]: 2% | inhibition [23]: 7% | residual activity [8]: 100% | residual activity [9]: 94% | residual activity [10]: 73% | residual activity [11]: 91% | inhibition [24]: 14% | inhibition [25]: 20% | inhibition [26]: -6% | inhibition [27]: 3% | residual activity [13]: 100% | inhibition [14]: 17.2% | residual activity [15]: 86% | residual activity [16]: 86% | residual activity [17]: 73%
